Experimental data as given in PMC10254233, “Synthesis and In Vitro Biological Evaluation of p-Carborane-Based Di-tert-butylphenol Analogs” (Molecules, 2023).

Legend:
A375 melanoma = assay: Cell viability, MTT assay, A375; format: cell-based, human; details: 72 h, mean ± SD
Protocol: (§1) Five human cell lines (A375 melanoma, A549 lung adenocarcinoma, HCT116 and HT29 colorectal carcinoma, MDA-MB-231 triple-negative breast adenocarcinoma) were used to study the antitumor effects of the di-tert-butylphenols and their respective carborane analogs. All selected cell lines were derived from inflammation-associated tumors.
(§2) After the incubation period, the supernatant was discarded from the wells, and the cells were washed two times with 200 µL of PBS. Next, MTT solution at a final concentration of 0.5 mg/mL was added and incubated at 37 °C until purple formazan crystals were formed (30 min to one hour). After incubation, the dye was discarded. In order to dissolve the formed formazan crystals DMSO was added, and the absorbance was measured at λmax = 540 nm, with the reference/background wavelength of 670 nm. All results are expressed as a percentage of the control value which was arbitrary set to 100%. After 72 h treatment, cells were washed with 200 µL of PBS and fixed with 4% paraformaldehyde (PFA) for 15 min at room temperature (RT). Next, cells were stained with 1% CV solution. After 20 min, cells were washed in tap water and dried on air. Dye was dissolved in 33% acetic acid and the absorbance was measured at λmax = 540 nm, with the reference/background wavelength of 670 nm. Results were expressed as a percentage of the control value which was arbitrary set to 100%.
(§3) 1. General methods, materials, and procedures
(§4) 1.1.1. Reagents and cells
(§5) Reagents and cells were obtained from following manufacturers: Capricorn Scientific GmbH (Hessen, Germany) – Culture medium RPMI-1640, Dulbecco's Modified Eagle Medium (DMEM), and fetal bovine serum (FBS). Serva (Heidelberg, Germany) – Paraformaldehyde (PFA). Sigma (St. Louis, MO, USA) – Ethylenediaminetetraacetic acid (EDTA), Dimethyl sulfoxide (DMSO), chloroquine, CV, Triton X-100, RNase, PI, PBS, 3-MA, CFSE, and fluorescent mounting medium. AppliChem (MO, USA) –MTT. Thermo Fisher Scientific (Waltham, MA, USA) – DHR. R&D Systems (Minneapolis, MN, USA) – ApoStat. BD (Pharmingen, San Diego, SAD) – Annexin V-FITC (AnnV). Biological Industries (Cromwell, CT, USA) – Penicillin Streptomycin solution. American Type Culture Collection (ATCC, Manassas, Virginia, USA) – Human lung carcinoma (A549), human breast adenocarcinoma (MDA-MB-231), human colorectal ade-nocarcinoma (HT-29), human colorectal carcinoma (HCT116) and human melanoma (A375).
(§6) Cell lines (A375, HCT116, HT-29 and MDA-MB-231) were cultivated in HEPES-buffered RPMI-1640 medium while A549 cell line was cultivated in Dulbecco's Modified Eagle Medium (DMEM) which were previously supplemented with 10% heat-inactivated FBS, penicillin (100 units/mL), and streptomycin (100 μg/mL). All cells were kept at 37 °C in a humidified atmosphere with 5% CO2. For viability determi-nation cells were seeded at following densities in 96-well plates: 4 x 10^3 cells/well (A375, HT-29 and MDA-MB-231), 5 x 10^3 cells/well (HCT116), and 3 x 10^3 cells/well (A549). […]
(§7) Afterwards, cells were washed with phosphate-buffered saline (PBS) and stained with AnnV (15 μg/mL) and PI (15 μg/mL). […]
(§8) PBS and analyzed using flow cytometry. HCT116 cells were stained with 1 µg/mL of AO solution for 15 min at 37 °C to detect the presence of autophagic cell death. Afterwards cells were washed with PBS, resuspended and analyzed by flow cytometry (CyFlow® Space Partec using the PartecFloMax® software

A549 lung adenocarcinoma = assay: Cell viability, MTT assay, A549; format: cell-based, human; details: 72 h, mean ± SD
Protocol: as §1, §2, §3, §4, §5, §6
(§9) Afterwards, cells were washed with phosphate-buffered saline (PBS) and stained with AnnV (15 μg/mL) and PI (15 μg/mL). After 15 min incubation at room temperature (RT) protected from light the cells were resuspended in AnnV-binding buffer and analysed using flow cytom-etry. HCT116 cells were incubated with pan-caspase inhibitor Apostat for 30 min at 37 °C to determine whether detected apoptosis was mediated by caspase activation. Afterwards, cells were washed with PBS and analyzed using flow cytometry. HCT116 cells were stained with 1 µg/mL of AO solution for 15 min at 37 °C to detect the presence of autophagic cell death. Afterwards cells were washed with PBS, resuspended and analyzed by flow cytometry (CyFlow® Space Partec using the PartecFloMax® software

[1] = system: HCT116 colorectal carcinoma; assay: Cell viability, MTT assay, HCT116; format: cell-based, human; details: 72 h, mean ± SD
Protocol: as §1, §2, §3, §4, §5, §6, §7, §8

[2] = system: HT-29 colorectal carcinoma; assay: Cell viability, MTT assay, HT-29; format: cell-based, human; details: 72 h, mean ± SD
Protocol: as §1, §2, §3, §4, §5, §6, §9

5-LO = target: T1, 5-LO (Homo sapiens, UniProt P09917); assay: 5-LO product formation in intact PMNL; details: read-out: IC50 inhibition of 5-LO product formation in intact PMNL; intact PMNL, A23187 + arachidonic acid, mean of at least three experiments
T1 sequence (P09917 1-674): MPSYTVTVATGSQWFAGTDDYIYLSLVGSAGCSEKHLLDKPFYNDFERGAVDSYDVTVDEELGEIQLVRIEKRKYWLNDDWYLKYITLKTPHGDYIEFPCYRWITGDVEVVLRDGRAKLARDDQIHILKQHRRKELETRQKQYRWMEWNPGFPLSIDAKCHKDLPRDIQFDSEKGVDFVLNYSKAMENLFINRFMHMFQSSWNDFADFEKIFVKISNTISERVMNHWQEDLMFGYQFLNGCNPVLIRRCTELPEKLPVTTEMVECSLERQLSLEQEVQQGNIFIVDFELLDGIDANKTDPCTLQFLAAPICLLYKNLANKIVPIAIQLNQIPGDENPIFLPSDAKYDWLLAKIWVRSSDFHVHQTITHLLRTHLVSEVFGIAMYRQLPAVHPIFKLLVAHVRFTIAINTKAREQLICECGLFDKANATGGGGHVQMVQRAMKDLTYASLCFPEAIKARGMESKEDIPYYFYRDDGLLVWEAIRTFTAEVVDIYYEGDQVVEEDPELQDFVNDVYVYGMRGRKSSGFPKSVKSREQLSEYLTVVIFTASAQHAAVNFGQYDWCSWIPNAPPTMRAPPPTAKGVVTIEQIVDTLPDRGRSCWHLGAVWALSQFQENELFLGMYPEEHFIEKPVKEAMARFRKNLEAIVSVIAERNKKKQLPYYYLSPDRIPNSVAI
Protocol: After 10 min at 37 °C, the reaction was stopped by addition of ice-cold methanol (1 mL). HCl (30 μL, 1 M), prostaglandin B1 (200 ng) and PBS (500 μL) were added and the formed metabolites were extracted and analyzed by HPLC as described previously [96].

Row | IC50 (A375 melanoma) | IC50 (A549 lung adenocarcinoma) | IC50 [1] | IC50 [2] | IC50 (5-LO) | Substance
1 | 69.3 ± 1.7 µM | 177 ± 14.5 µM | 144 ± 10.5 µM | 120 ± 9.7 µM | 0.22 µM | (3E)-1-Hydroxy-12-(methylene-[1′-methoxypyrrolidine-2′-one])-1,12-dicarba-closo-dodecaborane(12) [Compound E-5110-Cb]
2 | 106 ± 6.3 µM | 122 ± 10.4 µM | 108 ± 11.5 µM | 81.8 ± 6.1 µM | < 0.03 µM | (3E)-1-Hydroxy-12-(methylene-[2′-ethylisothiazolidine-1′,1′-dioxide])-1,12-dicarba-closo-dodecaborane(12) [Compound S-2474-Cb]
3 | 83.3 ± 2.3 µM | 120 ± 7 µM | 88.5 ± 4.3 µM | 139 ± 5.4 µM | 0.07 µM | (3E)-1-Hydroxy-12-(methylene-[dihydrofurane-2′(3H)-one])-1,12-dicarba-closo-dodecaborane(12) [KME-4-Cb]

Row | Substance | IC50 (A375 melanoma) | IC50 (A549 lung adenocarcinoma) | IC50 [1] | IC50 [2] | IC50 (5-LO)
4 | 1-Hydroxy-12-(thiophen-2′-carbonyl)-1,12-dicarba-closo-dodecaborane(12) [Compound R-830-Cb] | 35.9 ± 0.8 µM | 66.5 ± 1.7 µM | 40.9 ± 3.1 µM | 65.6 ± 5.3 µM | 0.65 µM
